Peptide text beside a SMILES is read from it.

Data set [1] has as its system differentiated SH-SY5Y neuronal cells. The experiment in a line: Neutral red (NR) uptake assay in differentiated SH-SY5Y cells. The conditions noted are these: 125 μM, 48 h; positive control for cytotoxicity. Type of data set: cell-based, human. The procedure: (§1) Following a protocol established in our research group, , these compounds were tested at 100 μM concentration using the 3-(4,5-dimethylthiazol-2-yl)-2,5-diphenyltetrazolium bromide (MTT) reduction and the neutral red (NR) uptake assays.
(§2) 5 Neurotoxic effects of the synthesized compounds were examined via MTT reduction (A) and NR uptake (B) assays in differentiated SH-SY5Y neuronal cells. Cells were incubated for 48 h with 1, 9, MIF-1 (100 μM), or 6-OHDA (125 μM). Compounds were solubilized in phosphate-buffered saline (PBS) solution. Results are reported as a percentage relative to the control (PBS) and shown as mean ± standard deviation. Data were collected from 16 to 36 wells across 9 independent experiments for the MTT reduction assay and from 12 wells and 3 independent experiments for the NR uptake assay. Statistical analyses were performed using the analysis of variance (ANOVA) test, followed by Tukey’s post hoc test (*p < 0.05 and ****p < 0.0001 vs control).
(§3) 4. Cytotoxicity in Human Neuronal SH-SY5Y Cells. The SH-SY5Y cell line was sourced from Sigma-Aldrich (Taufkirchen, Germany). DMEM medium [DMEM (1x) + GlutaMAX], DMEM/F-12, and Fetal Bovine Serum (FBS) were purchased from Gibco and Alfagene (Carcavelos, Portugal). Penicillin and Streptomycin were obtained from Biotecnómica (Porto, Portugal). Phosphate-buffered solution (PBS) without calcium and magnesium was acquired from Biochrom (Berlin, Germany). Trypsin/EDTA solution, 0.4% (w/v) trypan blue solution, NR solution, RA, and TPA were also obtained from Sigma-Aldrich (Germany). DMSO and HBSS (Hanks' Balanced Salt Solution) were purchased from Merck (Germany). MTT was sourced from Alfa Aesar (Kandel, Germany). 6-OHDA hydrobromide (CAS: 636-00-0) was acquired from Sigma-Aldrich (Germany).
(§4) Cell counts were performed on a Neubauer chamber using a Nikon Eclipse TS100 microscope from Nikon (Japan), and plate readings (MTT reduction and NR uptake assays) were conducted on a BioTek Synergy HT plate reader from BioTek (USA). Tissue culture flasks (25 cm²) and tissue culture 48 -well plates were purchased from TPP (Switzerland), while 5-, 10-, and 25-mL serological pipettes were obtained from Nerbe-Plus (Germany). Throughout all procedures, SH-SY5Y cells were maintained in a 5% CO2 incubator from Heraeus (Germany) at 37 °C. Cells were trypsinized after reaching confluence before experiments or for general culture maintenance.
(§5) Human neuroblastoma SH-SY5Y cells were maintained in complete DMEM medium supplemented with 10% (v/v) FBS and 1% (v/v) antibiotics (100 units/mL penicillin and 100 μg/mL streptomycin), at 37 °C in a 5% CO2 incubator throughout all procedures. […] After trypsin inactivation, cells were counted using a 0.4% (w/v) trypan blue solution and an optical microscope. […]

The test system is the same in data set [2]. The experiment in a line: MTT reduction assay in differentiated SH-SY5Y cells. In kind it is cell-based, human. The conditions noted are these: 125 μM, 48 h; positive control for cytotoxicity. On the procedure:
as §1, §2, §3, §4, §5

A short description of data set [3]: Neutral red (NR) uptake assay in differentiated SH-SY5Y cells. Type of data set: cell-based, human. The conditions noted are these: human. On the procedure: as §1, §2, §3, §4, §5
For data set [4], the system named is dopamine receptors isolated from bovine caudate tissue. The arrangement: method as in Johnson and co-workers. The conditions noted are these: 100 nM; ref Johnson and co-workers; cited from earlier work.
A short description of data set [5]: MTT reduction assay in differentiated SH-SY5Y cells. In kind it is cell-based, human. The conditions noted are these: human. The procedure: as §1, §2, §3, §4, §5
The target in the next data set is human D2R (Homo sapiens, UniProt P14416). The experiment in a line: D2R functional assay in the absence of dopamine (intrinsic agonist activity). Type of data set: cell-based. On the procedure:
To exclude intrinsic agonist activity and validate the PAM mechanism of the best-performing MIF-1 derivatives 1 and 9, the same experiments were conducted in the absence of dopamine and compared to the concentration–response curve of dopamine alone (Figure ).
3 Concentration–response for compounds 1 and 9 obtained at human D2R in the absence of dopamine (DA), with the DA concentration–response curve included for reference. Data are presented as the mean ± standard deviation from three independent experiments.

Sequence of human D2R (P14416 whole entry): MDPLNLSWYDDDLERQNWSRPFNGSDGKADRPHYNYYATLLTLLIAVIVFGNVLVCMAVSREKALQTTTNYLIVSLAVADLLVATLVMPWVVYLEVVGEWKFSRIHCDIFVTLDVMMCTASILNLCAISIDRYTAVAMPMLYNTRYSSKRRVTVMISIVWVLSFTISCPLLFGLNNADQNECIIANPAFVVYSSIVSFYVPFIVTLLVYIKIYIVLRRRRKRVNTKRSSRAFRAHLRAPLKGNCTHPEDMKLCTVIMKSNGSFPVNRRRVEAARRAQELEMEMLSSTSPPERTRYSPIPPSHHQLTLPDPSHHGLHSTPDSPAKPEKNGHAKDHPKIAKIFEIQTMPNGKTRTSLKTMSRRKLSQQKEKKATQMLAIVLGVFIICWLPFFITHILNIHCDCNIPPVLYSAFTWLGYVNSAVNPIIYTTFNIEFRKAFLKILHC

On to `NCCc1cc(O)c(O)cc1O` [6-OHDA, 6-hydroxydopamine, reference compound], for which, in data set [1], the “NR uptake, percentage relative to control (PBS)” value is given as 57.26 ± 7.41%. Also, in data set [2], the “MTT reduction, percentage relative to control (PBS)” value came out at 45.64 ± 11.85%.
As for `CC(C)C[C@H](NC(=O)[C@@H]1CCCN1)C(=O)NCC(N)=O` [MIF-1, L-prolyl-L-leucylglycinamide, reference compound] (H-Pro-Leu-Gly-NH2), the viability at 48 h, 100 µM in data set [3] amounted to 97.8 ± 8.56%; in data set [5], 105 ± 6%. Moreover, the “enhancement of specific binding of [3H]-ADTN (maximal effect)” value in data set [4] is recorded as 46.2 ± 13.4%.
As for `CC(C)C[C@H](NC(=O)[C@@H]1CCCCN1)C(=O)NCC(N)=O` [compound 1, L-pipecolyl-L-leucylglycinamide] (HELM PEPTIDE1{[O=C([C@@H]1CCCCN1)[*:2]].L.G.[am]}$$$$V2.0), the viability at 48 h, 100 µM was determined as 102 ± 3.48% in data set [3] and 105 ± 7.1% in data set [5]. Also, the “enhancement of specific binding of [3H]-ADTN (maximal effect)” value in data set [4] was 58.7 ± 9.3%. For the same molecule, at human D2R, the intrinsic agonistic effect entry was “no intrinsic agonistic effect”.
`COC(=O)CNC(=O)[C@H](CC(C)C)NC(=O)[C@@H]1CCCCN1` [compound 9, methyl L-pipecolyl-L-leucylglycinate] (HELM PEPTIDE1{[O=C([C@@H]1CCCCN1)[*:2]].L.G.[CO[*:1]]}$$$$V2.0): the viability at 48 h, 100 µM came to 100 ± 2.09% in data set [3] and 105 ± 6.8% in data set [5]. For the same molecule, the intrinsic agonistic effect result at human D2R is “no intrinsic agonistic effect”.

The values above are taken from publication PMC12358994, “Proline Homologation in Melanostatin Neuropeptide: Discovery of Potent Modulators of the Dopamine D2 Receptors” (ACS Medicinal Chemistry Letters, 2025).
